{"source": "patent US7795220B2", "about": "“Conformationally constrained parathyroid hormones with alpha-helix stabilizers” (The General Hospital Corporation, priority 2003, dated 2010)", "key": {"hP1R-delNt": {"biological_target": "T1, hP1R-delNt (Homo sapiens, UniProt Q03431)", "T1 construct": "expressed in transfected cells", "T1 sequence (Q03431 with tags, fused parts or gaps limits assumed)": "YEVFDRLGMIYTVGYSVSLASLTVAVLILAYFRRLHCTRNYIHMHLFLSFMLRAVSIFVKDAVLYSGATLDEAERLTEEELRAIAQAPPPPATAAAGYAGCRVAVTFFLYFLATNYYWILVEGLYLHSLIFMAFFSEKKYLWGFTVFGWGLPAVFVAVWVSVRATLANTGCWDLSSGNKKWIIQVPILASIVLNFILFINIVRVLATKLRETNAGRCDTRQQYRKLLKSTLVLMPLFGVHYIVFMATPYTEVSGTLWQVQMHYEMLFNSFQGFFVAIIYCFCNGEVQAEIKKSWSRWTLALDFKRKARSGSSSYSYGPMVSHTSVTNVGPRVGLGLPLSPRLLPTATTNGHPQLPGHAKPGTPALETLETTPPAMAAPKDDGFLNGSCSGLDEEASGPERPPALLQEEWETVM", "experiment": "cAMP stimulation in LdelNt-2 cells", "assay_type": "cell-based", "excerpt": "Cell Culture. The cell line HKRK-B28 (Takasu, H., et al., J. Bone Miner. Res. 14:11-20 (1999)) was derived from the porcine kidney cell line, LLC-PK1 by stable transfection with plasmid DNA encoding a recombinant P1R chimera comprised of the opposum P1R from the N-terminus to the mid region of TM3 and the rat P1R from the mid region of TM3 to the C-terminus. The surface density of the P1R in these cells is ˜280,000 receptors per cell. The clonal cell line LdelNt-2 was derived from LLC-PK, cells via stable transfection with a plasmid encoding P1R-delNt, a recombinant human PTH-1 receptor construct in which most of the amino-terminal extracellular domain is deleted. These cells, as well as COS-7 cells and SaOS-2-B10 cells, were cultured at […] in T-75 flasks ([…]) in Dulbecco's modified Eagle's medium (DMEM) supplemented with fetal bovine serum (10%), penicillin G (20 units/ml), streptomycin sulfate (20 μg/ml) and amphotericin B (0.05 μg/ml) in a humidified atmosphere containing 5% CO2. Stock solutions of EGTA/trypsin and antibiotics were from GLBCO; fetal bovine serum was from Hyclone Laboratories (Logan, Utah). COS-7 cells sub-cultured in 24-well plates were transfected with plasmid DNA (200 ng per well) encoding the wild-type human P1R or truncated human P1R deleted for residues (24-181) (Shimizu, M., et al., J. Biol. Chem. 275:21836-21843 (2000)) that was purified by cesium chloride/ethidium bromide density gradient centrifugation, and FuGENE 6 transfection reagent (Roche Indianapolis Ind.) according to the manufacturer's recommended procedure. All cells, in 24-well plates, were treated with fresh media and shifted to 33° C. for 12 to 24 h prior to assay.\ncAMP Stimulation. Stimulation of cells with peptide analogs was performed in 24-well plates. Cells were rinsed with 0.5 mL of binding buffer (50 mM Tris-HCl, 100 mM NaCl, 5 mM KCl, 2 mM CaCl2, 5% heat-inactivated horse serum, 0.5% fetal bovine serum, adjusted to pH 7.5 with HCl) and treated with 200 μL of cAMP assay buffer (Delbecco's modified Eagle's medium containing 2 mM 3-isobutyl-1-methylxanthine, 1 mg/mL bovine serum albumin, 35 mM Hepes-NaOH, pH 7.4) and 100 μL of binding buffer containing varying amounts of peptide analog (final volume=300 μL). The medium was removed after incubation for 30 to 60 minutes at room temperature, and the cells were frozen on dry ice, lysed with 0.5 mL 50 mM HCl, and refrozen ([…]). The cAMP content of the diluted lysate was determined by radioimmunoassay. The EC50 response values were calculated using nonlinear regression (see below).\nData Calculation. Calculations were performed using Microsoft® Excel. Nonlinear regression analyses of binding and cAMP dose-response data were performed using the four-parameter equation: yp=Min+[(Max−Min)/(1+(IC50/x)^slope)]. The Excel Solver function was utilized for parameter optimization, as described previously (Carter, P. H., et al., Endocrinology 140: 4972-4981 (1999); Bowen, W. P., and Jerman, J. C., Trends in Pharmacol. Sci. 16: 413-417 (1995)). Differences between paired data sets were statistically evaluated using a one-tailed Student's t-test, assuming unequal variances for the two sets.\nAgonist activities of selected analogs in cells expressing P1R-delNt were examined. This PTH-1 receptor construct lacks most of the N domain, but nevertheless mediates full agonist responses to N-terminally modified PTH analogs, and thus enables the relative roles of the receptor's N and J domains to the ligand interaction process to be evaluated. The clonal cell line LdelNT-2 was used, which was derived from LLC-PK, cells by stable transfection with a plasmid encoding the human P1R-delNt construct."}, "hP1R": {"biological_target": "T2, hP1R (Homo sapiens, UniProt Q03431)", "T2 construct": "expressed in transfected cells; host or cells: COS-7, transient transfection (FuGENE 6)", "T2 sequence (Q03431 27-593)": "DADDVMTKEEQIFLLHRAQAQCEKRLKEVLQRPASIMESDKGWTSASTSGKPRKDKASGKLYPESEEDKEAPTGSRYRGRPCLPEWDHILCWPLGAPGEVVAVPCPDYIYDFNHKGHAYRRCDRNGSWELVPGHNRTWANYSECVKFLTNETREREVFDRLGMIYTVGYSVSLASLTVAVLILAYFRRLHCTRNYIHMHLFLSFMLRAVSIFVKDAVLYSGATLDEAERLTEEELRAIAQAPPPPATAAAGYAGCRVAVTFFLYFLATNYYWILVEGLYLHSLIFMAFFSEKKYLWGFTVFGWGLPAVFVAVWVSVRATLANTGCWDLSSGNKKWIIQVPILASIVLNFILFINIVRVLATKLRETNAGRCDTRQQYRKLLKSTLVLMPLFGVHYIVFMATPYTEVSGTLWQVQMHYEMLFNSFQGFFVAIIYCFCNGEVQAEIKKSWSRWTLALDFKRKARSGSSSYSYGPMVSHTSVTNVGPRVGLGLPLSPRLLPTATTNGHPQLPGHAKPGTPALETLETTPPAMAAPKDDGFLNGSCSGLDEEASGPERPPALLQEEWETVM", "experiment": "Stimulation of inositol phosphate production / phospholipase C in COS-7 cells", "assay_type": "cell-based", "excerpt": "Cell Culture. The cell line HKRK-B28 (Takasu, H., et al., J. Bone Miner. Res. 14:11-20 (1999)) was derived from the porcine kidney cell line, LLC-PK1 by stable transfection with plasmid DNA encoding a recombinant P1R chimera comprised of the opposum P1R from the N-terminus to the mid region of TM3 and the rat P1R from the mid region of TM3 to the C-terminus. The surface density of the P1R in these cells is ˜280,000 receptors per cell. The clonal cell line LdelNt-2 was derived from LLC-PK, cells via stable transfection with a plasmid encoding P1R-delNt, a recombinant human PTH-1 receptor construct in which most of the amino-terminal extracellular domain is deleted. These cells, as well as COS-7 cells and SaOS-2-B10 cells, were cultured at […] in T-75 flasks ([…]) in Dulbecco's modified Eagle's medium (DMEM) supplemented with fetal bovine serum (10%), penicillin G (20 units/ml), streptomycin sulfate (20 μg/ml) and amphotericin B (0.05 μg/ml) in a humidified atmosphere containing 5% CO2. […]\nStimulation of Inositol Phosphate Production. […] The lysate was then applied to an ion exchange column (0.5 mL resin bed) and the total inositol phosphates were eluted as described previously (Berridge, M. J., et al., Biochem. J. 212:473-482 (1983)), and counted in liquid scintillation cocktail."}}, "note": "Non-standard residues stand in square brackets, D forms with d. Residues, ends and D or L forms follow the SMILES beside them. hArg = N=C(N)NCCCC[C@H](N)C(=O)O; Ac5c = NC1(C(=O)O)CCCC1; Aib = CC(C)(N)C(=O)O", "data": [{"smiles": "CC[C@H](C)[C@H](NC(=O)[C@H](CCC(=O)O)NC(=O)C(C)(C)NC(=O)[C@@H](NC(=O)C1(N)CCCC1)C(C)C)C(=O)N[C@@H](CCC(N)=O)C(=O)N[C@@H](CC(C)C)C(=O)N[C@@H](CCSC)C(=O)N[C@@H](Cc1c[nH]cn1)C(=O)N[C@@H](CCC(N)=O)C(=O)N[C@@H](CCCCNC(=N)N)C(=O)N[C@@H](C)C(=O)N[C@@H](CCCCN)C(=O)N[C@@H](Cc1c[nH]c2ccccc12)C(N)=O", "note": "[[Ac5c^1,Aib^3,M]PTH(1-14), [Ac5c^1,Aib^3,Gln^10,Har^11,Ala^12,Trp^14]PTH(1-14)NH2] (H-[Ac5c]V[Aib]EIQLMHQ[hArg]AKW-NH2)", "values": [{"measurement": "EC50", "setting": "hP1R-delNt", "value": "6.4 ± 2.3", "unit": "nM"}, {"measurement": "increase in cAMP accumulation (Emax) over basal", "setting": "hP1R-delNt", "value": 70, "unit": "fold"}, {"measurement": "maximum cAMP response", "setting": "hP1R-delNt", "value": "125±19 picomoles of cAMP per well"}, {"measurement": "potency for stimulating phospholipase C relative to [Aib1,3,M]PTH(1-14)", "setting": "hP1R", "value": 2, "unit": "fold"}]}]}
